Measurements from ChEMBL document CHEMBL4507278 (2021).

Key:
[1] = target: Serine/threonine-protein kinase Nek2 (Homo sapiens) (UniProt P51955); details: Compound concentration 1000.0 nM
[2] = target: Inhibitor of nuclear factor kappa-B kinase subunit epsilon (Homo sapiens) (UniProt Q14164); details: Compound concentration 1000.0 nM
[3] = target: Beta-adrenergic receptor kinase 1 (Homo sapiens) (UniProt P25098); details: Compound concentration 1000.0 nM
[4] = target: Protein-tyrosine kinase 2-beta (Homo sapiens) (UniProt Q14289); details: Compound concentration 1000.0 nM
[5] = target: Serine/threonine-protein kinase SBK1 (Homo sapiens) (UniProt Q52WX2); details: Compound concentration 1000.0 nM
[6] = test system: Phosphatidylinositol 4,5-bisphosphate 3-kinase catalytic subunit alpha isoform (Homo sapiens), P42336 [I800L]; details: Compound concentration 1000.0 nM
[7] = target: Phosphatidylinositol 4-phosphate 5-kinase type-1 alpha (Homo sapiens) (UniProt Q99755); details: Compound concentration 1000.0 nM
[8] = target: Cyclin-dependent kinase 2 (Homo sapiens) (UniProt P24941); details: Compound concentration 1000.0 nM
[9] = target: Receptor-type tyrosine-protein kinase FLT3 (Homo sapiens) (UniProt P36888); details: Compound concentration 1000.0 nM
[10] = target: Calcium/calmodulin-dependent protein kinase kinase 2 (Homo sapiens) (UniProt Q96RR4); details: Compound concentration 1000.0 nM
[11] = target: Calcium/calmodulin-dependent protein kinase type II subunit delta (Homo sapiens) (UniProt Q13557); details: Compound concentration 1000.0 nM
[12] = target: Cyclin-dependent kinase 4 (Homo sapiens) (UniProt P11802); details: Compound concentration 1000.0 nM
[13] = target: Serine/threonine-protein kinase TNNI3K (Homo sapiens) (UniProt Q59H18); details: Compound concentration 1000.0 nM
[14] = target: Cyclin-dependent kinase 4 (Homo sapiens) (UniProt P11802); details: Compound concentration 1000.0 nM; remark: listed apart in the source
[15] = target: Phosphatidylinositol 4,5-bisphosphate 3-kinase catalytic subunit alpha isoform (Homo sapiens) (UniProt P42336); details: Compound concentration 1000.0 nM
[16] = target: 1-phosphatidylinositol 3-phosphate 5-kinase (Homo sapiens) (UniProt Q9Y2I7); details: Compound concentration 1000.0 nM
[17] = target: 5-hydroxytryptamine receptor 1B (Homo sapiens) (UniProt P28222); details: Compound concentration 10.0 uM
[18] = target: Mitogen-activated protein kinase kinase kinase 13 (Homo sapiens) (UniProt O43283); details: Compound concentration 1000.0 nM
[19] = target: Hormonally up-regulated neu tumor-associated kinase (Homo sapiens) (UniProt P57058); details: Compound concentration 1000.0 nM
[20] = target: Serine/threonine-protein kinase RIO3 (Homo sapiens) (UniProt O14730); details: Compound concentration 1000.0 nM
[21] = target: Membrane-associated tyrosine- and threonine-specific cdc2-inhibitory kinase (Homo sapiens) (UniProt Q99640); details: Compound concentration 1000.0 nM
[22] = target: Cyclin-dependent kinase 16 (Homo sapiens) (UniProt Q00536); details: Compound concentration 1000.0 nM
[23] = test system: Epidermal growth factor receptor (Homo sapiens), P00533 [L858R]; details: Compound concentration 1000.0 nM
[24] = target: Platelet-derived growth factor receptor alpha (Homo sapiens) (UniProt P16234); details: Compound concentration 1000.0 nM
[25] = target: Serine/threonine-protein kinase 17A (Homo sapiens) (UniProt Q9UEE5); details: Compound concentration 1000.0 nM
[26] = target: Dual specificity protein kinase CLK4 (Homo sapiens) (UniProt Q9HAZ1); details: Compound concentration 1000.0 nM
[27] = target: Tyrosine-protein kinase Fgr (Homo sapiens) (UniProt P09769); details: Compound concentration 1000.0 nM
[28] = target: Serine/threonine-protein kinase Sgk3 (Homo sapiens) (UniProt Q96BR1); details: Compound concentration 1000.0 nM
[29] = target: Protein kinase C delta type (Homo sapiens) (UniProt Q05655); details: Compound concentration 1000.0 nM
[30] = target: Tyrosine-protein kinase Tec (Homo sapiens) (UniProt P42680); details: Compound concentration 1000.0 nM
[31] = test system: Mast/stem cell growth factor receptor Kit (Homo sapiens), P10721 [L576P]; details: Compound concentration 1000.0 nM
[32] = target: Ephrin type-B receptor 4 (Homo sapiens) (UniProt P54760); details: Compound concentration 1000.0 nM
[33] = target: Histamine H1 receptor (Homo sapiens) (UniProt P35367); details: Compound concentration 10.0 uM
[34] = target: BDNF/NT-3 growth factors receptor (Homo sapiens) (UniProt Q16620); details: Compound concentration 1000.0 nM
[35] = target: Tyrosine-protein kinase ZAP-70 (Homo sapiens) (UniProt P43403); details: Compound concentration 1000.0 nM
[36] = target: Serine/threonine-protein kinase Nek5 (Homo sapiens) (UniProt Q6P3R8); details: Compound concentration 1000.0 nM
[37] = target: G protein-coupled receptor kinase 3 (Homo sapiens) (UniProt P35626); details: Compound concentration 1000.0 nM
[38] = target: cGMP-dependent protein kinase 2 (Homo sapiens) (UniProt Q13237); details: Compound concentration 1000.0 nM
Chain of cGMP-dependent protein kinase 2 (Homo sapiens) (Q13237 whole entry): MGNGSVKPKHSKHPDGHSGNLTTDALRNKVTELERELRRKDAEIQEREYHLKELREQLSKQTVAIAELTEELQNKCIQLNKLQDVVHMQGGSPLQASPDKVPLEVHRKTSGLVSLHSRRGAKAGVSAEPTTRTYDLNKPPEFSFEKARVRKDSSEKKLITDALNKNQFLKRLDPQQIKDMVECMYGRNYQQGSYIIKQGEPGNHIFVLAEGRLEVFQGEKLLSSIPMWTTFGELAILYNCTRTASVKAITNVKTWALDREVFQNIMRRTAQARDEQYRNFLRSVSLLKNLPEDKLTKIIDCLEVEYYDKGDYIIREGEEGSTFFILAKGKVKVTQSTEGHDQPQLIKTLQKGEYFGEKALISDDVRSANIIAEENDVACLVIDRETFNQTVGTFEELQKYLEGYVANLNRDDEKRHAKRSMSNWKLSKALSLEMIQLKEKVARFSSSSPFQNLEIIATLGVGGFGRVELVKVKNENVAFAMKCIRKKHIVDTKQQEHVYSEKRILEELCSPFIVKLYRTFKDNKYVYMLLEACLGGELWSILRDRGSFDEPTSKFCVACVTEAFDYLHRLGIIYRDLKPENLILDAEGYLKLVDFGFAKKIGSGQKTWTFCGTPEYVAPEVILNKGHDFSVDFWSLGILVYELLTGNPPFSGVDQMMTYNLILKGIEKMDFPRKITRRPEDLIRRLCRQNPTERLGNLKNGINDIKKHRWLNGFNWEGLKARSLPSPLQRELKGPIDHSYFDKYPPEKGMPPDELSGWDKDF

Chain of Cyclin-dependent kinase 4 (Homo sapiens) (P11802 whole entry, canonical isoform): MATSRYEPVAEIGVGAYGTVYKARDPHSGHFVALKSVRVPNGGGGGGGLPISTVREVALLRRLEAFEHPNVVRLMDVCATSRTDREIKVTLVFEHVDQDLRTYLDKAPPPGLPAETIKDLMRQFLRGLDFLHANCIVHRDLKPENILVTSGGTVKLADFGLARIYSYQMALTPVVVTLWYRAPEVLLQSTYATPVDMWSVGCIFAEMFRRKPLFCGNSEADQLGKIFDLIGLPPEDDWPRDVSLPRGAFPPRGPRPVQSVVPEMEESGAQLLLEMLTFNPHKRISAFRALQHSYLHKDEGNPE
Chain of Ephrin type-B receptor 4 (Homo sapiens) (P54760 whole entry): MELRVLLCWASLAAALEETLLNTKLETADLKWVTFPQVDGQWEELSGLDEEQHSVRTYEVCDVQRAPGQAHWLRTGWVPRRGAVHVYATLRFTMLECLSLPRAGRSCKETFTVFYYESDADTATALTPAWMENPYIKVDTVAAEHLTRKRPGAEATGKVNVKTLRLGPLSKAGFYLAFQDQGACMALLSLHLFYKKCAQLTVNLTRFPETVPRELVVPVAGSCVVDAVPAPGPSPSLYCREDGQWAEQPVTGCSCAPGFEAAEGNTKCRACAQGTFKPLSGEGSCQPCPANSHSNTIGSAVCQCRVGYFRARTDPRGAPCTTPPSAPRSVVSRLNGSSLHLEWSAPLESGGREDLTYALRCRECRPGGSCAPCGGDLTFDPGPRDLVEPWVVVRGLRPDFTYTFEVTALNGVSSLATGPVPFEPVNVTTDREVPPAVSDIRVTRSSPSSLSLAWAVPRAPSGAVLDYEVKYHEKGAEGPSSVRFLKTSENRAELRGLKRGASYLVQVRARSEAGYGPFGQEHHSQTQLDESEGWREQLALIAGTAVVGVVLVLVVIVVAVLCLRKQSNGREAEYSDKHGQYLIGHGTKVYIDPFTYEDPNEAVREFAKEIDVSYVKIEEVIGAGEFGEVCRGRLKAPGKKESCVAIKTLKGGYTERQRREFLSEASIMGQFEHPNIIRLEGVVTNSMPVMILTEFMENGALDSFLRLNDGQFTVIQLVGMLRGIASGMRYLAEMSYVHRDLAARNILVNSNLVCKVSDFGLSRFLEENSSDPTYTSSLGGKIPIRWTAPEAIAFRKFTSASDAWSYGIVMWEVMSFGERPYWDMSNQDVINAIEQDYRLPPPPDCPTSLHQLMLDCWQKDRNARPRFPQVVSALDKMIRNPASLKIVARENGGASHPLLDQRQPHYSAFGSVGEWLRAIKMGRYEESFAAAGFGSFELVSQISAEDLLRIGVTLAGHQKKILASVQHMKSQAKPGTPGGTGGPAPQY
Chain of Phosphatidylinositol 4,5-bisphosphate 3-kinase catalytic subunit alpha isoform (Homo sapiens), P42336 [I800L] (P42336 whole entry I800L, canonical isoform): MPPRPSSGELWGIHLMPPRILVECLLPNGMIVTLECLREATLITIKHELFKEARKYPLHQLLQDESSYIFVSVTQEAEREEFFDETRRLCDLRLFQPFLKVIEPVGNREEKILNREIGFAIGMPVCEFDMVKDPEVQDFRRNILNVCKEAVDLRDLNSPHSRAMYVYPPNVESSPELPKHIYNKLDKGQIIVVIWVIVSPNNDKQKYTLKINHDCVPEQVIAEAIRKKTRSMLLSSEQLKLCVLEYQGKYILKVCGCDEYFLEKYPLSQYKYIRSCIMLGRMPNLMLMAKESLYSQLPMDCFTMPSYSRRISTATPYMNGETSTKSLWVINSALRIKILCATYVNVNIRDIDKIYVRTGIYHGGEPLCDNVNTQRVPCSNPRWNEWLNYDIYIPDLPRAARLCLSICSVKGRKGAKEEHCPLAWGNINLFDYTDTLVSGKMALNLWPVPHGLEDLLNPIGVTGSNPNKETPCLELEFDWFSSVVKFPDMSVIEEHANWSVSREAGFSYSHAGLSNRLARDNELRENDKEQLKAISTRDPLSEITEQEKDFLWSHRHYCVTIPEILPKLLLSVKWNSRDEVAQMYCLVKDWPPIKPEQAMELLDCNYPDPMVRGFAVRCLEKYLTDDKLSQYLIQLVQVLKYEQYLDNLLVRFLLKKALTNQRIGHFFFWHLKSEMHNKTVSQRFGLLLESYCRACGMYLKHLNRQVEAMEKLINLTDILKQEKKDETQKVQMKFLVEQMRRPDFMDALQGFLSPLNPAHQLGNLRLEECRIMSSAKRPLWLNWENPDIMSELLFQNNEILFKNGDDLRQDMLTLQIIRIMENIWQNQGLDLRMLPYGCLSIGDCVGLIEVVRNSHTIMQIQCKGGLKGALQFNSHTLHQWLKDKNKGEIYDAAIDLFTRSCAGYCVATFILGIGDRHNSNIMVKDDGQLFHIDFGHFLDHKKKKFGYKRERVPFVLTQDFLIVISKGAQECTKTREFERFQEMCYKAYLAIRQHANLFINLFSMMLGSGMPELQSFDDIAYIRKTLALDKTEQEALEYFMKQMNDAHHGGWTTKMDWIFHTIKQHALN
Chain of Dual specificity protein kinase CLK4 (Homo sapiens) (Q9HAZ1 whole entry, looked up): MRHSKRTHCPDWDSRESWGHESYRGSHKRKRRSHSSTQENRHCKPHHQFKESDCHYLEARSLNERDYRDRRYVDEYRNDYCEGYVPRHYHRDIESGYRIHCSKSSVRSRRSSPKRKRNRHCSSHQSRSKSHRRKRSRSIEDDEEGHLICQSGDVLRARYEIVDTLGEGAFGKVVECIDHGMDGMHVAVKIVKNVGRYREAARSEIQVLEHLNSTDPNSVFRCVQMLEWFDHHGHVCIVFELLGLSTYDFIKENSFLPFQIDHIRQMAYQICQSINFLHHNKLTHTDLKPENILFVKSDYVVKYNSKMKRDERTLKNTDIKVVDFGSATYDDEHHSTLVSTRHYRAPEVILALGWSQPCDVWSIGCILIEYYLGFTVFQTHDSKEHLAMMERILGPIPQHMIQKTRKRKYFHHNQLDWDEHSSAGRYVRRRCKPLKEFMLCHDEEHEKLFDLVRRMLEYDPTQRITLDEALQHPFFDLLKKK
Chain of Serine/threonine-protein kinase Sgk3 (Homo sapiens) (Q96BR1 whole entry): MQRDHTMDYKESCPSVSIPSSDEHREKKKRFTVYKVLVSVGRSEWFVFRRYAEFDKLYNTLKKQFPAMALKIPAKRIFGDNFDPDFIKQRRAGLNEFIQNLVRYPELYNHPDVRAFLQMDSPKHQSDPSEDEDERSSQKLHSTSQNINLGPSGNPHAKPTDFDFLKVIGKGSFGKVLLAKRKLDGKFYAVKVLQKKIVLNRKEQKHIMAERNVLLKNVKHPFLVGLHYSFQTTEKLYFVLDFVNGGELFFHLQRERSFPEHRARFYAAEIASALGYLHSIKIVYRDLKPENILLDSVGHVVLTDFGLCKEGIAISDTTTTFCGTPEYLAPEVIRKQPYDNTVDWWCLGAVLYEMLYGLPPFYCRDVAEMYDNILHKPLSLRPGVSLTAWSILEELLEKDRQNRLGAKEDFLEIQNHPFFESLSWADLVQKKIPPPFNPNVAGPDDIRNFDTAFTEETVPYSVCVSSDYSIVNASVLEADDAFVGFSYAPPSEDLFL
Chain of Tyrosine-protein kinase Fgr (Homo sapiens) (P09769 2-529 limits assumed): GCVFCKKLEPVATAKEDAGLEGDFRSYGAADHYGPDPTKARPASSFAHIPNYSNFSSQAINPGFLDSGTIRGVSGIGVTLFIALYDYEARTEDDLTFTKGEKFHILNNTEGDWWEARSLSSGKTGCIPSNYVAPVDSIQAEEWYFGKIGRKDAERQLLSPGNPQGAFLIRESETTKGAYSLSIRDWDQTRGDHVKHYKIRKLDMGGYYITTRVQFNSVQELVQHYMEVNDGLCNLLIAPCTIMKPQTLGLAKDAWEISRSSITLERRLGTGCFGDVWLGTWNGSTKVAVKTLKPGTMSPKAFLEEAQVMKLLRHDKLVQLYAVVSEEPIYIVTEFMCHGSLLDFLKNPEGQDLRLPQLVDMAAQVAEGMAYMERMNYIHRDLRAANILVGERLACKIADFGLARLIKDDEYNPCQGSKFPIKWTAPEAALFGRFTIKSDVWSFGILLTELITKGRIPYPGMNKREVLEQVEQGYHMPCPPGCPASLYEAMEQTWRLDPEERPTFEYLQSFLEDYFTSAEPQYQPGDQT
Chain of Serine/threonine-protein kinase 17A (Homo sapiens) (Q9UEE5 whole entry): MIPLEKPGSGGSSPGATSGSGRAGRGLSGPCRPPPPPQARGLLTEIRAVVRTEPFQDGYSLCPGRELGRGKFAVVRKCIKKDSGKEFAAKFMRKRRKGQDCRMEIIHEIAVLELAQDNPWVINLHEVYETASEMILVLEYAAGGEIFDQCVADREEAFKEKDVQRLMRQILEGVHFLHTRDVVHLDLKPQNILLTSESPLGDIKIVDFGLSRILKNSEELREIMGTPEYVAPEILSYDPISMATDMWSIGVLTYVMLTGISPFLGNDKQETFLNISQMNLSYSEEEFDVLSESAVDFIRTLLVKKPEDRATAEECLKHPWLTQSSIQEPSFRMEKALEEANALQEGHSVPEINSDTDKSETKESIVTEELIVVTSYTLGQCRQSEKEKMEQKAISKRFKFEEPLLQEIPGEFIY

SMILES | residual activity [1] [%] | residual activity [2] [%] | residual activity [3] [%] | residual activity [4] [%] | residual activity [5] [%] | residual activity [6] [%] | residual activity [7] [%] | residual activity [8] [%] | residual activity [9] [%] | residual activity [10] [%] | residual activity [11] [%] | residual activity [12] [%] | residual activity [13] [%] | residual activity [14] [%] | residual activity [15] [%] | residual activity [16] [%] | inhibition [17] [%] | residual activity [18] [%] | residual activity [19] [%] | residual activity [20] [%] | also measured
CS(=O)(=O)NCC[C@H](NC(=O)c1cncc2c1cnn2-c1ccc(F)cc1)c1ccnc(S(C)(=O)=O)c1 [BI 9307] | 97 | 78 | 100 | 84 | 96 | 61 | 100 | 100 | 93 | 100 | 100 | 95 | 100 | 100 | 83 | 76 | 47.7 | 100 | 100 | 100 | residual activity [21]: 84%; residual activity [22]: 100%; residual activity [23]: 83%; residual activity [24]: 100%; residual activity [25]: 100%; residual activity [26]: 85%; residual activity [27]: 100%; residual activity [28]: 100%; residual activity [29]: 76%; residual activity [30]: 96%; residual activity [31]: 100%; residual activity [32]: 100%; inhibition [33]: 12.5%; residual activity [34]: 100%; residual activity [35]: 80%; residual activity [36]: 100%; residual activity [37]: 100%; residual activity [38]: 87%
CS(=O)(=O)c1cc(C2(NC(=O)c3cncc4c3cnn4-c3ccc(F)cc3)CC2)ccn1 [BI 639667] | 93 | 100 | 48 | 100 | 95 | 68 | 100 | 94 | 100 | 75 | 76 | 100 | 64 | 83 | 100 | 79 | 13.5 | 76 | 100 | 100 | residual activity [21]: 85%; residual activity [22]: 94%; residual activity [23]: 100%; residual activity [24]: 90%; residual activity [25]: 84%; residual activity [26]: 100%; residual activity [27]: 100%; residual activity [28]: 100%; residual activity [29]: 100%; residual activity [30]: 99%; residual activity [31]: 100%; residual activity [32]: 100%; inhibition [33]: 11.2%; residual activity [34]: 91%; residual activity [35]: 71%; residual activity [36]: 100%; residual activity [37]: 100%; residual activity [38]: 89%
